Consider 20 compounds from patent US10385050B2, “Indolin-2-one and 1,3-dihydro-pyrrolo[3,2-c]pyridin-2-one derivatives” (Hoffmann-La Roche Inc., priority 2014, dated 2019).

SMILES strings stand for the structures. Structures can show the parent of a compound that is named as a salt.

The test system of test [1] is L-687,414-induced hyperlocomotion. Kind of test: Reversal of L-687,414-induced hyperlocomotion (Digiscan locomotor activity). The format is in vivo, mouse. The settings on record: for ID50 po: dose producing 50% inhibition of L-687,414-induced hyperlocomotion, p.o. 15 min before s.c. 50 mg/kg L-687,414, doses 1-3-10 (Expl. 2: 3-10-30) mg/kg; for inhibition in vivo at 30 mg/kg: Mus musculus, 0.5 h, dose ip 30 mg/kg at the same time as s.c. 50 mg/kg L-687,414, horizontal activity over 30 min. The text has this:
The authors described that hyperlocomotion induced by L-687,414 was inhibited by a series of known antipsychotic drugs. […] These findings predict antipsychotic activity for the present compounds, making them useful for the treatment of positive (psychosis) and negative symptoms of schizophrenia, substance abuse, alcohol and drug addiction, obsessive-compulsive disorders, cognitive impairment, bipolar disorders, mood disorders, major depression, resistant depression, anxiety disorders, Alzheimer's disease, autism, Parkinson's disease, chronic pain, borderline personality disorder, sleep disturbances, chronic fatigue syndrome, stiffness, antiinflammatory effects in arthritis and balance problems.
The described compounds of formula I reduce L-687,414-induced hyperlocomotion. This was assessed by using a computerized Digiscan 16 Animal Activity Monitoring System (Omnitech Electronics, Columbus, Ohio) to quantify locomotor activity. Animals were kept under a 12 h light/dark cycle and experiments were performed during the light period. Each activity monitoring chamber consisted of a Plexiglas box (41×41×28 cm; W×L×H) with sawdust bedding on the floor surrounded by invisible horizontal and vertical infrared sensor beams. The test boxes were divided by a Plexiglas cross providing each mouse with 20×20 cm of moving space. Cages were connected to a Digiscan Analyzer linked to a computer that constantly collected the beam status information. Records of photocell beam interruptions for individual animals were taken every 5 min over the duration of the experimental session and the sum of the first 6 periods was used as the final parameter. Compounds were administered either p.o. 15 min before a s.c. injection of 50 mg/kg of L-687,414, or i.p. at the same time as a s.c. injection of 50 mg/kg of L-687,414. Mice were then transferred from their home cage to the recording chambers for a 15-min habituation phase allowing free exploration of the new environment. Horizontal activity was then recorded for a 30-min time period. The % inhibition of L-687,414-induced hyperlocomotion was calculated according to the equation: ((Veh+L-687,414 horizontal activity−drug+L-687,414 horizontal activity)/Veh+L−687,414 horizontal activity)×100
ID50 values, defined as doses of each compound producing 50% inhibition of L-687,414-induced hyperlocomotion, were calculated by linear regression analysis of a dose-response data using an Excel-based computer-fitting program.
As data was not presupposed to be normally distributed, groups treated with test compounds were statistically compared with the control (vehicle-treated) group using one-tailed Mann Whitney U tests. In statistics, the Mann-Whitney U test (also called the Mann-Whitney-Wilcoxon (MWW) or Wilcoxon rank-sum test) is a non-parametric statistical hypothesis test for assessing whether one of two samples of independent observations tends to have larger values than the other. It is one of the most well-known non-parametric significance tests. […] P values given in table 1 are one-tailed since only decreases in locomotion were expected and tested for (Mann, H. B., Whitney, D. R. (1947), “On a Test of Whether one of Two Random Variables is Stochastically Larger than the Other”, Annals of Mathematical Statistics, 18 (1), 50-60).

Test [2] has as its system behaviors of compound-treated mice. Briefly: SmartCube behavioral signature and similarity analysis to atypical antipsychotics. The settings on record: 25 mg/kg i.p.; for SmartCube signature (class similarity): FIG. 1; for Similarity analysis: discrimination rate vs Clozapine / Similarity analysis: discrimination rate vs Olanzapine / Similarity analysis: discrimination rate vs Risperidone: rate of 0.70 or lower = similar, 0.5 = zero distinguishability. The format is in vivo, mouse. From the text:
In addition to the reversal of L-687,414 induced hyperlocomotion experiment as described above, some compounds of the present invention have been tested in SmartCube®, an automated system in which the behaviors of compound-treated mice in response to multiple challenges are captured by digital video and analyzed with computer algorithms (Roberds et al., Frontiers in Neuroscience, 2011, Vol. 5, Art. 103, 1-4). In this way, the neuro-pharmacological effects of a test compound can be predicted by similarity to major classes of compounds, such as antipsychotics, anxiolytics and antidepressants.
As mentioned above, some compounds have been tested in SmartCube®, an analytical system developed by PsychoGenics Inc.
SmartCube® was used to compare the behavioral signature of a test compound to a database of behavioral signatures obtained from a large set of clinically approved reference drugs, grouped per indications. In this way, the neuro-pharmacological effects of a test compound can be predicted by similarity to major classes of compounds, such as antipsychotics, anxiolytics and antidepressants. This approach is ideally suited to screen collections of existing drugs or drug candidates with previously unknown neuropharmacology, which could expedite the development of new and unexpected treatments for psychiatric disorders.
Some compounds of the present invention were injected i.p. at different doses 15 minutes before the test. At least 8 mice were used in each treatment group. Digital videos of the subjects were processed with computer vision algorithms to extract over 2000 dependent measures including frequency and duration of many different behavioral states. The results of the classifications are presented as bar charts for each compound and dose (mg/kg), the Y-axis indicates the relative probability that the test compound will show efficacy in the specific CNS indication.
Compounds of the present invention show similar signatures to those of atypical antipsychotics. An independent analysis was performed on the unclassified data to determine the similarity of the example compounds to active doses of known atypical antipsychotics. For this analysis, we use discrimination rate as the measure of separability between the two drugs, i.e. one drug's “distinguishability” from another. A rate equal to 50% (or 0.5) corresponds to zero distinguishability. […] In most cases, the example compounds show a similarity to risperidone, clozapine and olanzapine with a discrimination rate of ≤0.70.

As for `Cc1cc(-c2ncc(-c3ccc4c(c3)NC(=O)C4(C)C)o2)ccn1` [Example 35, 3,3-Dimethyl-6-(2-(2-methylpyridin-4-yl)oxazol-5-yl)indolin-2-one], in test [1], the ID50 po is 5.82 mg/kg. Also, in test [2], the “SmartCube signature (class similarity)” value is given as “similarity to atypical antipsychotics”, the “Similarity analysis: discrimination rate vs Clozapine” value (from here on “Similarity analysis … vs Clozapine”) came to 0.69, the “Similarity analysis: discrimination rate vs Olanzapine” value (“Similarity analysis … vs Olanzapine” for short) is 0.75 and the “Similarity analysis: discrimination rate vs Risperidone” value (from here on “Similarity analysis … vs Risperidone”) amounted to 0.60.

Take `CC1(C)C(=O)Nc2cc(-n3cnc(-c4ccncc4)c3)ccc21` [Example 47, 3,3-Dimethyl-6-(4-(pyridin-4-yl)-1H-imidazol-1-yl)indolin-2-one]: in test [2], the “SmartCube signature (class similarity)” value is “similarity to atypical antipsychotics”, the “Similarity analysis … vs Clozapine” value worked out at 0.70, the “Similarity analysis … vs Olanzapine” value was found to be 0.68 and the “Similarity analysis … vs Risperidone” value stood at 0.64.

Consider `Cc1cc(-n2cnc(-c3ccc4c(c3)N(C)C(=O)C4(C)C)c2)ccn1` [Example 62, 1,3,3-Trimethyl-6-(1-(2-methylpyridin-4-yl)-1H-imidazol-4-yl)indolin-2-one], for which the ID50 po in test [1] is given as 8.8 mg/kg. In test [2], the “SmartCube signature (class similarity)” value is recorded as “similarity to atypical antipsychotics”, the “Similarity analysis … vs Clozapine” value is 0.59, the “Similarity analysis … vs Olanzapine” value is listed as 0.62 and the “Similarity analysis … vs Risperidone” value is reported as 0.58.

As for `Cc1cnccc1-n1cnc(-c2ccc3c(c2)N(C2CC2)C(=O)C3(C)C)c1` [Example 89, 1-Cyclopropyl-3,3-dimethyl-6-(1-(3-methylpyridin-4-yl)-1H-imidazol-4-yl)indolin-2-one], the inhibition in vivo at 30 mg/kg in test [1] came to 58.5%.

For the compound `CC1(C)C(=O)Nc2cc(-c3cn(-c4cccnc4)cn3)ccc21` [Example 93, 3,3-Dimethyl-6-(1-(pyridin-3-yl)-1H-imidazol-4-yl)indolin-2-one], in test [2], the “SmartCube signature (class similarity)” value is “similarity to atypical antipsychotics”, the “Similarity analysis … vs Clozapine” value amounted to 0.63, the “Similarity analysis … vs Olanzapine” value is listed as 0.68 and the “Similarity analysis … vs Risperidone” value turned out to be 0.60.

As for `Cc1ccc(-c2ncc(-c3ccc4c(c3)N(C)C(=O)C4(C)C)cn2)cn1` [Example 101, 1,3,3-Trimethyl-6-(2-(6-methylpyridin-3-yl)pyrimidin-5-yl)indolin-2-one], the inhibition in vivo at 30 mg/kg in test [1] is 78.4%.

For the compound `Cc1ccc(N2C(=O)C(C)(C)c3ccc(-c4cn(-c5ccncc5F)cn4)cc32)cn1` [Example 102, 6-[1-(3-Fluoro-4-pyridyl)imidazol-4-yl]-3,3-dimethyl-1-(6-methyl-3-pyridyl)indolin-2-one], the inhibition in vivo at 30 mg/kg in test [1] worked out at 65.6%.

Regarding `Cc1ccc(N2C(=O)C(C)(C)c3ccc(-c4cn(-c5ccnc(C)c5)cn4)cc32)cn1` [Example 104, 3,3-Dimethyl-1-(6-methyl-3-pyridyl)-6-[1-(2-methyl-4-pyridyl)imidazol-4-yl]indolin-2-one], the inhibition in vivo at 30 mg/kg in test [1] worked out at 64.8%.

As for `Cc1ccc(N2C(=O)C(C)(C)c3ccc(-c4cn(-c5ccncc5C)cn4)cc32)cn1` [Example 105, 3,3-Dimethyl-1-(6-methyl-3-pyridyl)-6-[1-(3-methyl-4-pyridyl)imidazol-4-yl]indolin-2-one], the inhibition in vivo at 30 mg/kg in test [1] amounted to 40.6%.

As to `Cc1cc(N2C(=O)C(C)(C)c3ccc(-c4cn(-c5ccncc5C)cn4)cc32)ccn1` [Example 106, 3,3-Dimethyl-1-(2-methyl-4-pyridyl)-6-[1-(3-methyl-4-pyridyl)imidazol-4-yl]indolin-2-one], the inhibition in vivo at 30 mg/kg in test [1] was 68.4%.

Turning to `Cc1cc(-n2cnc(-c3ccc4c(c3)N(c3cn(C)cn3)C(=O)C4(C)C)c2)ccn1` [Example 111, 3,3-Dimethyl-1-(1-methylimidazol-4-yl)-6-[1-(2-methyl-4-pyridyl)imidazol-4-yl]indolin-2-one], in test [1], the inhibition in vivo at 30 mg/kg was 55.1%.

For the compound `Cc1cc(-n2cnc(-c3ccc4c(c3)N(c3ccn(C)n3)C(=O)C4(C)C)c2)ccn1` [Example 112, 3,3-Dimethyl-1-(1-methylpyrazol-3-yl)-6-[1-(2-methyl-4-pyridyl)imidazol-4-yl]indolin-2-one], the inhibition in vivo at 30 mg/kg in test [1] was determined as 52.5%.

For `Cc1cnccc1-n1cnc(-c2ccc3c(c2)N(c2cn(C)cn2)C(=O)C3(C)C)c1` [Example 114, 3,3-Dimethyl-1-(1-methylimidazol-4-yl)-6-[1-(3-methyl-4-pyridyl)imidazol-4-yl]indolin-2-one], the inhibition in vivo at 30 mg/kg in test [1] was 64.9%.

With `Cc1cnccc1-n1cnc(-c2ccc3c(c2)N(c2ccn(C)n2)C(=O)C3(C)C)c1` [Example 115, 3,3-Dimethyl-1-(1-methylpyrazol-3-yl)-6-[1-(3-methyl-4-pyridyl)imidazol-4-yl]indolin-2-one], in test [1], the inhibition in vivo at 30 mg/kg was determined as 74.1%.

With `Cc1ncc(N2C(=O)C(C)(C)c3ccc(-c4cn(-c5ccncc5C)cn4)cc32)cn1` [Example 116, 3,3-Dimethyl-6-[1-(3-methyl-4-pyridyl)imidazol-4-yl]-1-(2-methylpyrimidin-5-yl)indolin-2-one], the inhibition in vivo at 30 mg/kg in test [1] amounted to 74.3%.

On to `Cc1cnc(-n2cnc(-c3ccc4c(c3)N(C3CC3)C(=O)C4(C)C)c2)nc1` [Example 118, 1-Cyclopropyl-3,3-dimethyl-6-(1-(5-methylpyrimidin-2-yl)-1H-imidazol-4-yl)indolin-2-one], for which the inhibition in vivo at 30 mg/kg in test [1] amounted to 50.3%.

In the case of `Cc1cnc(-n2cnc(-c3ccc4c(c3)N(C)C(=O)C4(C)C)c2)nc1` [Example 119, 1,3,3-Trimethyl-6-(1-(5-methylpyrimidin-2-yl)-1H-imidazol-4-yl)indolin-2-one], in test [1], the inhibition in vivo at 30 mg/kg is 48.1%.

For `Cc1cccc(-n2cnc(-c3ccc4c(c3)NC(=O)C4(C)C)c2)n1` [Example 123, 3,3-Dimethyl-6-(1-(6-methylpyridin-2-yl)-1H-imidazol-4-yl)indolin-2-one], the inhibition in vivo at 30 mg/kg in test [1] amounted to 30.6%.

`CC1(C)C(=O)N(CCO)c2cc(-c3cn(-c4ccncc4F)cn3)ccc21` [Example 130, 6-[1-(3-Fluoro-4-pyridyl)imidazol-4-yl]-1-(2-hydroxyethyl)-3,3-dimethyl-indolin-2-one]: the inhibition in vivo at 30 mg/kg in test [1] is 74.5%.

On to `Cc1cc(-n2cnc(-c3ccc4c(c3)NC(=O)C4(C)C)c2)c(F)cn1` [Example 132, 6-[1-(5-Fluoro-2-methyl-4-pyridyl)imidazol-4-yl]-3,3-dimethyl-indolin-2-one trifluoroacetate], for which the inhibition in vivo at 30 mg/kg in test [1] was found to be 71.1%.

The term inhibition in vivo denotes the percentage by which the read-out fell short of the control.
